Assay results taken from ChEMBL document CHEMBL1201862, “PubChem BioAssay data set” (2004).
Activity calls are given as the source filed them.

Legend:
[1] = target: T1, Polyadenylate-binding protein 1 (Homo sapiens, UniProt P11940); assay: MLLE domain peptide-binding blockers, IC50 – biochemical, fluorescence polarization, FITC-PAM2 peptide, dose response (AID 602259); format: functional; settings: read-out: IC50_Mean
HEK293 = assay: EBV LMP1 TES2 canonical NF-kB signalling blockers – cell-based, HEK293, luciferase, cherry-pick, dose response (AID 588343); format: functional; settings: Homo sapiens
[2] = toxicity toward HepG2 liver cells – cell-based, plate reader, cherry-pick, antagonist series, cytotoxicity control, dose response (AID 743416); format: functional
[3] = blockers of bursicon-stimulated LGR2 cAMP reporter – cell-based, HEK293, CRE-luciferase reporter, cherry pick, set 2, dose response (AID 743343); format: functional;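 further: transfected cells were stimulated with diluted bursicon conditioned medium after compound addition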
[4] = target: T1, Polyadenylate-binding protein 1; assay: MLLE binding blockers, Cy5 peptide tracer – biochemical, fluorescence polarization, Cy5-PAM2 peptide, secondary, miRNA deadenylation inhibitor project, dose response (AID 602260); format: functional; settings: read-out: IC50_Mean
[5] = blockade of melanocortin 4 receptor signaling – cell-based, plate reader, cherry pick, counter-screen for LGR2 antagonist project, dose response (AID 743444); format: functional;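 further: transfected HEK 293 cells stimulated with alpha-MSH peptide; potency of inhibitors of the alpha-MSH evoked signal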
[6] = target: ATP-dependent molecular chaperone HSP82 (Candida albicans (strain WO-1) (Yeast), UniProt C4YTQ8); assay: steroid-induced GRE reporter decrease in yeast – S. cerevisiae, luminescence, Hsp90 inhibitor project, dose response (AID 2400); format: functional, cell-based;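 further: beta-galactosidase luminescence from glucocorticoid response element reporter as proxy for Hsp90 function; inhibitor potency where signal loss means Hsp90 inhibition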
ATP-dependent molecular chaperone HSP82, sequence (C4YTQ8 whole entry): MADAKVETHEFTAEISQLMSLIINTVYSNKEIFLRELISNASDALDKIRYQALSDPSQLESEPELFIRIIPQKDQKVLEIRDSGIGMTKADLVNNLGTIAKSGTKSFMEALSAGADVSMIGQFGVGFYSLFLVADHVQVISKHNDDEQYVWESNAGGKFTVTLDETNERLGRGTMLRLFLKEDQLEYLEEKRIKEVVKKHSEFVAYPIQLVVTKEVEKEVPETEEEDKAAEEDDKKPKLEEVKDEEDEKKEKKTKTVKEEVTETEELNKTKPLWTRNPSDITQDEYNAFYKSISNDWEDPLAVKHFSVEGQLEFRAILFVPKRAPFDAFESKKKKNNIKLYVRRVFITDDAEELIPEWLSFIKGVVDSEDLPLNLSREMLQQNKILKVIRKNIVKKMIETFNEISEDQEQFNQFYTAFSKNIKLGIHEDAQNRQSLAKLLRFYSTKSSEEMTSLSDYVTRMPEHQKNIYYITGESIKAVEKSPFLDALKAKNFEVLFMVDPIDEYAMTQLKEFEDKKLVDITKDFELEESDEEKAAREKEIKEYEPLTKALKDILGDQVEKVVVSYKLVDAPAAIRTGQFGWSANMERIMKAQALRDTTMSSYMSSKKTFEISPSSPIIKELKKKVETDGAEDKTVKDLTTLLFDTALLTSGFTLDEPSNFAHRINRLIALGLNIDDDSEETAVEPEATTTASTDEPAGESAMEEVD

Streptokinase A = target: T2, Streptokinase A (Streptococcus pyogenes serotype M1, UniProt P10520); assay: viability-normalized secreted streptokinase activity reduction – plasminogen activation absorbance, OD405, dose response (AID 1914); format: functional, Streptococcus pyogenes M1 GAS;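 further: secreted streptokinase activity via plasminogen activation per viability signal from cell pellet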
T2 sequence (P10520 whole entry): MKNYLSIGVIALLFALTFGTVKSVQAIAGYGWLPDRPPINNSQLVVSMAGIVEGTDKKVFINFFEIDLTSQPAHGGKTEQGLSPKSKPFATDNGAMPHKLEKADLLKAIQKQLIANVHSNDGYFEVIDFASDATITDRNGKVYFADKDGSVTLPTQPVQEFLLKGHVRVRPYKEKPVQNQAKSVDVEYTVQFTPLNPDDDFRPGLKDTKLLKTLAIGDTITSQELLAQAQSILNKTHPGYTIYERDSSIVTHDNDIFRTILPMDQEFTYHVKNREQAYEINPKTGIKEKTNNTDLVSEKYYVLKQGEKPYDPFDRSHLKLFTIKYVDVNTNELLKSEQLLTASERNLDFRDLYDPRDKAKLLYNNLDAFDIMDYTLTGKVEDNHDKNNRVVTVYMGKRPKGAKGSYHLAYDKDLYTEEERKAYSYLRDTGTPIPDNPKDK

[7] = microbe, parasite or virus in culture; format: functional; settings: Mycobacterium tuberculosis
[8] = fluconazole-exposed Candida albicans growth modulators – fluorescence, retest, confirmation (AID 2467); format: functional, cell-based
Streptococcus = assay: GAS UMAA2166 growth inhibition – luminescence, BacTiterGlo, counter-screen for streptokinase expression inhibitor project, dose response (AID 1915); format: functional, organism-based;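 further: potency for reduction of bacterial viability or growth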
[9] = tested on: Streptococcus sp. 'group A'; assay: Streptococcus pyogenes SK(-)GAS viability under kanamycin – luminescence, BacTiterGlo, confirmation, counter-screen for streptokinase expression inhibitor project, dose response (AID 1900); format: functional, organism-based
Melanocortin receptor 4 = Melanocortin receptor 4 (Homo sapiens, UniProt P32245); format: functional, cell-based;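 further: Cell-based assay with luminescence read-out, confirmatory dose-response testing for agonist activity of biased ligands at MC4R; human U2OS cells with tagged receptor and beta-arrestin; potency of agonists that increase receptor coupling to beta-arrestin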
Melanocortin receptor 4, sequence (P32245 whole entry): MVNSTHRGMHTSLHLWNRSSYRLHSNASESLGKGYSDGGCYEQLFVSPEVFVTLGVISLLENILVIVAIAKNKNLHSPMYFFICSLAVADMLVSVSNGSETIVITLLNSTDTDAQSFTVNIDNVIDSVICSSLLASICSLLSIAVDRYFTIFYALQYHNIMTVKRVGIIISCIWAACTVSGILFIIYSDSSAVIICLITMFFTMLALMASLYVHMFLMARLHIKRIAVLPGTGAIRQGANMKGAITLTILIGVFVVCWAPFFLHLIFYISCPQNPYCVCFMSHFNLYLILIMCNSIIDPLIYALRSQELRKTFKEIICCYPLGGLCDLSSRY

[10] = NIH-3T3 fibroblast cytotoxicity, dose response, cytotoxicity control, cell-based, fluorescence, Alamar Blue, secondary assay (AID 2327); format: functional;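 further: NIH-3T3 mouse fibroblasts cultured with fluconazole at 8 µg/mL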
[11] = target: T3, Serine/threonine-protein phosphatase (Candida dubliniensis (strain CD36 / CBS 7987 / NCPF 3949 / NRRLY-17841) (Yeast), UniProt B9W6M3); assay: blockers of CaCl2-induced CDRE-lacZ signaling – S. cerevisiae, luminescence, secondary, dose response (AID 2388); format: functional, cell-based;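 further: yeast reporter cells carrying a calcineurin-responsive lacZ construct stimulated with calcium chloride; luminescent beta-galactosidase reporter signal in whole cells rather than isolated phosphatase activity; potency for inhibition where a drop in reporter signal means calcineurin blockade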
T3 sequence (B9W6M3 whole entry): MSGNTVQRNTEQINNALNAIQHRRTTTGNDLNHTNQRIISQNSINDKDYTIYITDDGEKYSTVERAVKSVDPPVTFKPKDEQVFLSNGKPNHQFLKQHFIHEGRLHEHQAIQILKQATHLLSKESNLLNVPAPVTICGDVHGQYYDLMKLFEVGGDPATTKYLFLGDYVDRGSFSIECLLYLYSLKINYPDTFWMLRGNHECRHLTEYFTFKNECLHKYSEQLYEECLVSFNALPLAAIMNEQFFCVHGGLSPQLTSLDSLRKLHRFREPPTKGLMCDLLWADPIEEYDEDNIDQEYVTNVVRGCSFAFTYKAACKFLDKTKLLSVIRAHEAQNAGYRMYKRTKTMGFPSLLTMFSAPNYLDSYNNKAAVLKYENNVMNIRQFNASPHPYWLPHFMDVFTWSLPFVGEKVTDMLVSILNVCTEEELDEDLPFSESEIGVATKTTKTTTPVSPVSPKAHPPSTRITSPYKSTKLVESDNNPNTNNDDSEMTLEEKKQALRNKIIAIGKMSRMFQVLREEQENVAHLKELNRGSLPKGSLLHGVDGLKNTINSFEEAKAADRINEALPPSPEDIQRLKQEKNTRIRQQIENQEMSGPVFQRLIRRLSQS

[12] = Luminescence Cell-Based Dose Retest to Confirm Inhibitors of Cancer Stem Cells. [Related pubchem assays (depositor defined):AID2717, AID2721]; format: functional; settings: Homo sapiens
Protein skinhead-1 = target: T4, Protein skinhead-1 (Caenorhabditis elegans, UniProt P34707); format: functional
T4 sequence (P34707 whole entry): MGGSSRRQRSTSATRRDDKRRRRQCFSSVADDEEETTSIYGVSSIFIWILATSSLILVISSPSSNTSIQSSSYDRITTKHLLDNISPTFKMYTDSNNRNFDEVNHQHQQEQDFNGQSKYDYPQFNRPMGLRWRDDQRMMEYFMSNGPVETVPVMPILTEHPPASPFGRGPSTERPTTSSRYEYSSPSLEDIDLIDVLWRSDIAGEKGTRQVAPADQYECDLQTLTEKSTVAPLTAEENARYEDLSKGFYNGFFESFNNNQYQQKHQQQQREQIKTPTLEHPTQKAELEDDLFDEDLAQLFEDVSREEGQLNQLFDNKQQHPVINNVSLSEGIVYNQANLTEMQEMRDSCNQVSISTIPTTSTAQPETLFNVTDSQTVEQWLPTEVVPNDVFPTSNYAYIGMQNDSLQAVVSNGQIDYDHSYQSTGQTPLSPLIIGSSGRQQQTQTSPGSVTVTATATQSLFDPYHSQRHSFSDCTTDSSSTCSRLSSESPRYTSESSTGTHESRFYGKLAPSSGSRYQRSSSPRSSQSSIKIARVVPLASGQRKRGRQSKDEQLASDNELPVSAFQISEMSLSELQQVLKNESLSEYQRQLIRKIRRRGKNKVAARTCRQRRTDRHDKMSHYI

Protein Wnt-3a = Protein Wnt-3a (Mus musculus, UniProt P27467); assay: antagonism of Wnt3a pathway luciferase reporter – Wnt-LIGHT cells, luminescence, selectivity assay for Gli-SUFU antagonist project, dose response (AID 651570); format: functional; settings: read-out: IC50_Mean;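 further: Wnt-LIGHT reporter cells stimulated with conditioned medium from Wnt3a-producing cells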
Protein Wnt-3a, sequence (P27467 whole entry): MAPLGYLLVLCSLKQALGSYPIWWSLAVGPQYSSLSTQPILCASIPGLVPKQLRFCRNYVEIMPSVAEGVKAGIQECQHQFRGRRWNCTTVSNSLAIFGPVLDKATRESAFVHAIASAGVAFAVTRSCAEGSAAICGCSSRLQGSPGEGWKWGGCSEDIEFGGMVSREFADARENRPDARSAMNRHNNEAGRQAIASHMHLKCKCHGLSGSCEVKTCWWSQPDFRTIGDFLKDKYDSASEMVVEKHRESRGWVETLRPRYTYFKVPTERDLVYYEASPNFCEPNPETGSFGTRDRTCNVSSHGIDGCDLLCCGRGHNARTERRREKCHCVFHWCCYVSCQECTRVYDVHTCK

Vero = assay: viability of Vero cells under compound – cytotoxicity control for flavivirus capping enzyme inhibitors (AID 588742); format: functional; settings: Chlorocebus sabaeus
[13] = target: 72 kDa type IV collagenase (Homo sapiens, UniProt P08253); assay: Dose Response validation of uHTS RPN11 inhibitor hits using a MMP-2 Fluorescence assay.; format: functional
72 kDa type IV collagenase, sequence (P08253 whole entry): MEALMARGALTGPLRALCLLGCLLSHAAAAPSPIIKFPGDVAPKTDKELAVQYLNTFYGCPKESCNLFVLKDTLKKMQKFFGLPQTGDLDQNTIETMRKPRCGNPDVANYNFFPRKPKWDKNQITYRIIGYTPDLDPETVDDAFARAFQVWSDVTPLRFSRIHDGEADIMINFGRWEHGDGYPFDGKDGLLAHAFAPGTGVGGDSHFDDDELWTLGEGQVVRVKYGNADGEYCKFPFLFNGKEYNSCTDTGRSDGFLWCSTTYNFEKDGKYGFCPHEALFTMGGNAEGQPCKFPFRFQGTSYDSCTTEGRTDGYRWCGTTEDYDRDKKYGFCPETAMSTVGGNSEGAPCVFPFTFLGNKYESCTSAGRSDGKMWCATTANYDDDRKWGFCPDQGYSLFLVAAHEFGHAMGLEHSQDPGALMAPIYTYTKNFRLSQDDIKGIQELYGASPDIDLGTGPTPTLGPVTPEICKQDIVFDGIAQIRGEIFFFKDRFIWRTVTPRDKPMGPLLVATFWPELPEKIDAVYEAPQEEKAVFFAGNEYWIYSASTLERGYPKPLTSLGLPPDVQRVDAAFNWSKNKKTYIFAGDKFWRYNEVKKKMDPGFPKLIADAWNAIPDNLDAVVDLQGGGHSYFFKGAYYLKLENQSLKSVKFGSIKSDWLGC

Prothrombin = Prothrombin (Bos taurus, UniProt P00735); assay: thrombin protease inhibitors – biochemical, fluorescence polarization, uHTS hits, dose response (AID 602369); format: functional
[14] = target: 26S proteasome non-ATPase regulatory subunit 14 (Homo sapiens, UniProt O00487); assay: inhibition of proteasome subunit RPN11 – biochemical, fluorescence polarization, uHTS hits, confirmation (AID 602368); format: functional
26S proteasome non-ATPase regulatory subunit 14, sequence (O00487 whole entry): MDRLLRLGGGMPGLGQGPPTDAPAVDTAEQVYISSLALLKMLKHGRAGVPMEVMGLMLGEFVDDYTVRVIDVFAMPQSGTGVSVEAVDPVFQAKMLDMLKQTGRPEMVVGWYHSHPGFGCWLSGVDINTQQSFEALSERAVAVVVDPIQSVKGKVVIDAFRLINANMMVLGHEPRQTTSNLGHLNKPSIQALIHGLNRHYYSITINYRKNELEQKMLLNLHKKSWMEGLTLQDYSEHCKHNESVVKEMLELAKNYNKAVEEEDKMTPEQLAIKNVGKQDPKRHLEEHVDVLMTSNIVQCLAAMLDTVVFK

[15] = target: T5, Endoribonuclease toxin MazF (Escherichia coli K-12, UniProt P0AE70); assay: activation of MazEF endoribonuclease cleavage – biochemical, fluorescence, single-stranded RNA substrate, uHTS hits, dose response (AID 588481); format: functional
T5 sequence (P0AE70 whole entry): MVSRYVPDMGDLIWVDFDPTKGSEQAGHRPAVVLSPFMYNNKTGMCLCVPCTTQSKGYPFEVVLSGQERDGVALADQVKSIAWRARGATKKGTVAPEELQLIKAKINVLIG

[16] = target: T5, Endoribonuclease toxin MazF; assay: substrate-only fluorescence increase artefacts – biochemical, single-stranded RNase substrate, counter-screen for MazEF activator project, dose response (AID 588502); format: functional

T1 sequence (P11940 whole entry, the tested form may be a part): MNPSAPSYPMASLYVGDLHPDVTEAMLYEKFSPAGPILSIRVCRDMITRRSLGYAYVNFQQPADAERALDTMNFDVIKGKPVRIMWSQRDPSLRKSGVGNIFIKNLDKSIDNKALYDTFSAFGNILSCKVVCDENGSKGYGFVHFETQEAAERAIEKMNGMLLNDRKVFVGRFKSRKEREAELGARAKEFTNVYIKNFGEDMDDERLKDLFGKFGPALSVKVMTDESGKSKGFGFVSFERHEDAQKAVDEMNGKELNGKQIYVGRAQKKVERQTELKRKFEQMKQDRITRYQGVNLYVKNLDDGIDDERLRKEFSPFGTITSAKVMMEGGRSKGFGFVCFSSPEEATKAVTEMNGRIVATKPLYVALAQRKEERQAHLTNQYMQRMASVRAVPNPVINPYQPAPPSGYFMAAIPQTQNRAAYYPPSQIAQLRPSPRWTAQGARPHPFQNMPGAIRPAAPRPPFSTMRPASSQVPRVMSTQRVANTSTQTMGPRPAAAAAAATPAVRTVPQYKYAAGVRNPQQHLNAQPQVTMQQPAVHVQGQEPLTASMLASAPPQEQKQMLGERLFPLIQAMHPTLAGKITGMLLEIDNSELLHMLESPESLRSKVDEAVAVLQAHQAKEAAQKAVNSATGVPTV

O=C(CN1C(=O)c2ccccc2S1(=O)=O)Nc1ncc(Cl)cc1Cl
IC50 [1]: 27.3 µM (inactive)
AC50 (HEK293): 3.85 µM (active)
AC50 [2]: > 52 µM (inactive)
AC50 [3]: 8.67 µM (active)
IC50 [4]: > 66 µM (inactive)
AC50 [5]: 9.06 µM (active)

O=C(Nc1nc2ccc(SC(F)F)cc2s1)c1ccc(NS(=O)(=O)c2ccc(F)c(F)c2)cc1
EC50 [6]: > 150 µM (inactive)
EC50 (Streptokinase A): > 50 µM (not active)
CC50 [7]: 20.1 µM (active)
EC50 [8]: 2.18 µM (active)
EC50 (Streptococcus): 2.79 µM (active)
EC50 [9]: 2.68 µM (active)
EC50 (Melanocortin receptor 4): > 89.2 µM (inactive)
EC50 [10]: 92.6 µM (active)
EC50 [11]: > 180 µM (inactive)
AC50 [12]: 2.45 µM (active)

CC(=O)Nc1cccc(OCC(=O)/C=C2\N(C)c3ccccc3C2(C)C)c1
IC50 (Protein skinhead-1): > 100 µM (inactive)
IC50 (Protein Wnt-3a): 50 µM (inactive)

CCn1c(=O)c(C(=O)CN2CCc3ccccc32)c(N)n(Cc2ccccc2)c1=O
CC50 (Vero): > 40 µM (active)

Cc1ccc(NC2=NC(=O)/C(=C/c3cccs3)S2)cc1C
IC50 [13]: > 100 µM (inactive)
IC50 (Prothrombin): 37.8 µM (active)
IC50 [14]: 25.9 µM (active)

COc1cccc(-c2cc(C(=O)N3CCc4ccccc4C3)[nH]n2)c1
EC50 [15]: > 99 µM (inactive)
EC50 [16]: > 99 µM (inactive)
